This note sets out measurements from patent US12673975B2, “Cyclic peptide, cell scaffold material, cell separating material, and medium” (FUJIFILM Corporation, priority 2019, dated 2026).

A short description of data set [1]: Evaluation of molecule stability (alkali treatment, residual rate by LC/MS). In kind it is physicochemical. The following applies: for Performance evaluation: Stability (residual rate of cyclic peptide after alkali treatment): 500 μM peptide aqueous solution plus equivalent of 1 M sodium hydroxide, 15° C., 3 hours, LC/MS peak area; for Stability (molecule stability, residual rate of the cyclic peptide rank): alkali treatment, residual rate by LC/MS. Summed up:
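500 μM aqueous cyclic peptide mixed with an equal volume of 1 M NaOH and held 3 h at 15 °C. Residual rate is total LC/MS peak area after treatment relative to untreated (100%), using a C18 column, pH 3 ammonium formate/acetonitrile gradient, 45 °C, ESI±.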

A further data set deals with human integrin αvβ5 (Homo sapiens, UniProt P06756+P18084). As to the kind of experiment: Evaluation of integrin binding property (surface plasmon resonance, Biacore 3000, immobilized cyclic peptide). Summed up:
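SPR with cyclic peptide amine-coupled via EDC/NHS to a CM5 chip, blank channel as reference. Integrin αvβ5 at 30, 100, 300 and 1,000 nM injected 10 min at 25 °C in HEPES buffer pH 7.4 with 5 mM MgCl2, 30 min buffer flow, EDTA regeneration; Kd from reference-subtracted signals, graded by category.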
For orientation: Surface plasmon resonance follows binding to a sensor surface in real time, without labels.

[2] abbreviates: SPR, 25° C., HEPES buffer with 5 mM magnesium chloride, integrin 30-1,000 nM, read-out: Performance evaluation: Binding activity (dissociation constant between the cyclic peptide and human integrin αvβ5).
[3] abbreviates: surface plasmon resonance, immobilized cyclic peptide, human integrin αvβ5, read-out: Binding activity (integrin binding property, dissociation constant rank).

The structures appear in SMILES notation. Like-named read-outs stand apart in the source and are kept apart here. Starred links: 1 amine or outer side, 2 acyl side, 3 side chain; linkers in the order of their positions; H or OH if unused. Positions of bridges follow the written chain, without caps; N, C: chain ends. Non-standard residues stand in square brackets, D forms with d. Residues, ends and D or L forms follow the SMILES beside them. hCys = N[C@@H](CCS)C(=O)O; Dab = NCC[C@H](N)C(=O)O; Dap = NC[C@H](N)C(=O)O; X1 = O=C(C[*:2])[*:1]; X2 = O=C(C[*:1])[*:2]

human integrin αvβ5, sequence (P06756 31-1048): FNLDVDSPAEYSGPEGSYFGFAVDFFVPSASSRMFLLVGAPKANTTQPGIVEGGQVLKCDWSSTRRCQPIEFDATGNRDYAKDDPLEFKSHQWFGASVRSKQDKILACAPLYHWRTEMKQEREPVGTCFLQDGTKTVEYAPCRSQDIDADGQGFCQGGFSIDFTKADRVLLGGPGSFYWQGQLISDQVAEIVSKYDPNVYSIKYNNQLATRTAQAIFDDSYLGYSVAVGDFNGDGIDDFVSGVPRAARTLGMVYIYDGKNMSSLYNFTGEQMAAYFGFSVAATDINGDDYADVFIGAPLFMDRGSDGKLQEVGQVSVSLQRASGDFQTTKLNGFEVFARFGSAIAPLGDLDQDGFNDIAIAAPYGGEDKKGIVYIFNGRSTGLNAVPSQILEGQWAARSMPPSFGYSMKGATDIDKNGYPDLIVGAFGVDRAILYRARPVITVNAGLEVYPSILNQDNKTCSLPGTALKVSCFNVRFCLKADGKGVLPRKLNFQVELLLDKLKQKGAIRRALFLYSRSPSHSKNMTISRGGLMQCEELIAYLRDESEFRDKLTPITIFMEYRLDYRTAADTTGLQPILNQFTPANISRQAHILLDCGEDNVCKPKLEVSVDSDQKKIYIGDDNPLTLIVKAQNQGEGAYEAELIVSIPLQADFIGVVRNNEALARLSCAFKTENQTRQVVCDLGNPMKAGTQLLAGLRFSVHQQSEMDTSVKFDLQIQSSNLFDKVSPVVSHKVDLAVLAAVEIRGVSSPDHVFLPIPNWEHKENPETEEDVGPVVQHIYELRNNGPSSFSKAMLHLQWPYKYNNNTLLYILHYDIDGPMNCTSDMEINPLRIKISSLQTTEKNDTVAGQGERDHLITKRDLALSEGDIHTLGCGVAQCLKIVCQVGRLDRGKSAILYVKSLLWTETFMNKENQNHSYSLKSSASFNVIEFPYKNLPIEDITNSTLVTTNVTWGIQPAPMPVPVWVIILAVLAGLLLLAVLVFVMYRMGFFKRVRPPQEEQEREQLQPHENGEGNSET
human integrin αvβ5, sequence (P18084 24-799): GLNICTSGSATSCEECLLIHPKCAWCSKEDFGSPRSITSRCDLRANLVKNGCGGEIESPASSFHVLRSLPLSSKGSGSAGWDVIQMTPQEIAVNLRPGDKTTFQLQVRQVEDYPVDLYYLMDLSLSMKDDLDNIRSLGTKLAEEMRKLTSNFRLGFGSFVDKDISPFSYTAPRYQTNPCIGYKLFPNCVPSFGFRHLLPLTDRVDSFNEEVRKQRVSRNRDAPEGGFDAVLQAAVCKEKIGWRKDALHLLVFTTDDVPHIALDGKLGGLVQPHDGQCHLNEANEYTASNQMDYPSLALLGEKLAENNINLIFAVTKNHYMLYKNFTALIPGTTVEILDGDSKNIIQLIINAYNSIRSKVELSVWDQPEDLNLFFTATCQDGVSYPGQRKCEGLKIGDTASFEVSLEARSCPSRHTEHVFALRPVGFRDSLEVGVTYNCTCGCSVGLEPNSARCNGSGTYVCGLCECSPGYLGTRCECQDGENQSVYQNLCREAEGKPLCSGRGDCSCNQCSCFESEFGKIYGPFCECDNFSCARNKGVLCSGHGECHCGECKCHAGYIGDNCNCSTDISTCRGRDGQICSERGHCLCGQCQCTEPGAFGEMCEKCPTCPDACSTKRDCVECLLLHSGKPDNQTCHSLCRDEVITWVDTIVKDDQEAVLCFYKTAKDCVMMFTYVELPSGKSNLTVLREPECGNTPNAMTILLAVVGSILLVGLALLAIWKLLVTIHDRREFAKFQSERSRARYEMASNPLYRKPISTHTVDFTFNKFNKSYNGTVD

In the case of `CC[C@H](C)[C@@H]1NC(=O)[C@@H](NC(=O)CNC(=O)[C@H](CCCCN)NC(=O)[C@H](CCCCN)NC(=O)[C@@H](N)CCCCN)CCSCC(=O)NCC[C@@H](C(=O)NCC(=O)O)NC(=O)[C@H](C)NC(=O)[C@H](Cc2ccccc2)NC(=O)[C@H]([C@@H](C)O)NC(=O)[C@H](CC(=O)O)NC(=O)CNC(=O)[C@H](CCCNC(=N)N)NC(=O)[C@@H]2CCCN2C1=O` [Cyclic peptide 84, KKKG-(Hcy)-IPRGDTFA(Dab(acetyl))G] (H-KKKG[hCys]IPRGDTFA[Dab]G-OH; linker 5-14 via X2), in data set [1], the “Performance evaluation: Stability (residual rate of cyclic peptide after alkali treatment)” value was “A (The residual rate of the cyclic peptide is 70% or more.)”. The Kd at human integrin αvβ5 (setting [2]) is less than 50 nM.
As for `CC(C)[C@@H]1NC(=O)[C@@H](NC(=O)[C@H](CCCCN)NC(=O)[C@H](CCCCN)NC(=O)[C@@H](N)CCCCN)CCNC(=O)CSC[C@@H](C(=O)O)NC(=O)[C@H](C)NC(=O)[C@H](Cc2ccccc2)NC(=O)[C@H]([C@@H](C)O)NC(=O)[C@H](CC(=O)O)NC(=O)CNC(=O)[C@H](CCCNC(=N)N)NC(=O)[C@@H]2CCCN2C1=O` [Cyclic peptide 141, KKK(Dab(acetyl))VPRGDTFA(C)] (H-KKK[Dab]VPRGDTFAC-OH; linker 4-13 via X1), in data set [1], the “Stability (molecule stability, residual rate of the cyclic peptide rank)” value was “C (The residual rate of the cyclic peptide is 30% or more and less than 50%.)”. In addition, the Kd on human integrin αvβ5 (setting [3]) was less than 50 nM.
`CC[C@H](C)[C@@H]1NC(=O)[C@@H](NC(=O)[C@H](C)NC(=O)[C@H](CCCCN)NC(=O)[C@H](CCCCN)NC(=O)[C@@H](N)CCCCN)CCSCC(=O)NCC[C@@H](C(=O)N[C@@H](C)C(=O)O)NC(=O)[C@H](CCCNC(=N)N)NC(=O)[C@H](Cc2ccccc2)NC(=O)[C@H](C)NC(=O)[C@H](CC(=O)O)NC(=O)CNC(=O)[C@H](CCCNC(=N)N)NC(=O)[C@@H]2CCCN2C1=O` [Cyclic peptide 79, KKKA-(Hcy)-IPRGDAFR(Dab(acetyl))A] (H-KKKA[hCys]IPRGDAFR[Dab]A-OH; linker 5-14 via X2): the “Performance evaluation: Stability (residual rate of cyclic peptide after alkali treatment)” value in data set [1] was “A (The residual rate of the cyclic peptide is 70% or more.)”. For the same compound, the Kd at human integrin αvβ5 (setting [2]) is 50 to 100 nM.
Consider `C[C@H](NC(=O)[C@@H]1CCNC(=O)CSCC[C@H](NC(=O)[C@H](CCCCN)NC(=O)[C@H](CCCCN)NC(=O)[C@@H](N)CCCCN)C(=O)N[C@@H](Cc2ccc(O)cc2)C(=O)N2CCC[C@H]2C(=O)N[C@@H](CCCNC(=N)N)C(=O)NCC(=O)N[C@@H](CC(=O)O)C(=O)N[C@@H](CC(N)=O)C(=O)N[C@@H](Cc2ccccc2)C(=O)N[C@@H](CCCNC(=N)N)C(=O)N1)C(=O)O` [Cyclic peptide 24, KKK-(Hcy)-YPRGDNFR(Dab(acetyl))A] (H-KKK[hCys]YPRGDNFR[Dab]A-OH; linker 4-13 via X2), for which the “Performance evaluation: Stability (residual rate of cyclic peptide after alkali treatment)” value in data set [1] is “A (The residual rate of the cyclic peptide is 70% or more.)”. At human integrin αvβ5 (setting [2]), the Kd is less than 50 nM.
With `C[C@H](NC(=O)[C@H](CCCCN)NC(=O)[C@H](CCCCN)NC(=O)[C@@H](N)CCCCN)C(=O)N[C@H]1CCSCC(=O)NCC[C@@H](C(=O)O)NC(=O)[C@H](C)NC(=O)[C@H](Cc2ccccc2)NC(=O)[C@H]([C@@H](C)O)NC(=O)[C@H](CC(=O)O)NC(=O)CNC(=O)[C@H](CCCNC(=N)N)NC(=O)[C@@H]2CCCN2C(=O)[C@H]([C@@H](C)O)NC1=O` [Cyclic peptide 158, KKKA-(Hcy)-TPRGDTFA(Dab(acetyl))] (H-KKKA[hCys]TPRGDTFA[Dab]-OH; linker 5-14 via X2), the “Stability (molecule stability, residual rate of the cyclic peptide rank)” value in data set [1] is recorded as “A (The residual rate of the cyclic peptide is 70% or more.)”. Moreover, the Kd on human integrin αvβ5 (setting [3]) is less than 50 nM.
As for `N=C(N)NCCC[C@@H]1NC(=O)[C@H](Cc2ccc(O)cc2)NC(=O)[C@H](CC(N)=O)NC(=O)[C@H](CC(=O)O)NC(=O)CNC(=O)[C@H](CCCNC(=N)N)NC(=O)[C@@H]2CCCN2C(=O)[C@H](CCC(=O)O)NC(=O)[C@@H](NC(=O)[C@H](CCCCN)NC(=O)[C@H](CCCCN)NC(=O)[C@@H](N)CCCCN)CCSCC(=O)NCC[C@@H](C(=O)O)NC1=O` [Cyclic peptide 44, KKK-(Hcy)-EPRGDNYR(Dab(acetyl))] (H-KKK[hCys]EPRGDNYR[Dab]-OH; linker 4-13 via X2), the “Performance evaluation: Stability (residual rate of cyclic peptide after alkali treatment)” value in data set [1] was “A (The residual rate of the cyclic peptide is 70% or more.)”. In addition, the Kd on human integrin αvβ5 (setting [2]) was in the range of 50 to 100 nM.
For `CC(C)[C@@H]1NC(=O)[C@@H](NC(=O)[C@H](CCCCN)NC(=O)[C@H](CCCCN)NC(=O)[C@@H](N)CCCCN)CCSCC(=O)NCC[C@@H](C(=O)O)NC(=O)[C@H](Cc2ccccc2)NC(=O)[C@H]([C@@H](C)O)NC(=O)[C@H](CC(=O)O)NC(=O)CNC(=O)[C@H](CCCNC(=N)N)NC(=O)[C@@H]2CCCN2C1=O` [Cyclic peptide 64, KKK-(Hcy)-VPRGDTF(Dab(acetyl))] (H-KKK[hCys]VPRGDTF[Dab]-OH; linker 4-12 via X2), in that order: “A (The residual rate of the cyclic peptide is 70% or more.)” and less than 50 nM.
Regarding `CC(C)[C@@H]1NC(=O)[C@@H](NC(=O)[C@H](CCCCN)NC(=O)[C@H](CCCCN)NC(=O)[C@@H](N)CCCCN)CCSCC(=O)NCC[C@@H](C(=O)O)NC(=O)[C@H](CO)NC(=O)[C@H](Cc2ccccc2)NC(=O)[C@H]([C@@H](C)O)NC(=O)[C@H](CC(=O)O)NC(=O)CNC(=O)[C@H](CCCNC(=N)N)NC(=O)[C@@H]2CCCN2C1=O` [Cyclic peptide 153, KKK-(Hcy)-VPRGDTFS(Dab(acetyl))] (H-KKK[hCys]VPRGDTFS[Dab]-OH; linker 4-13 via X2), the “Stability (molecule stability, residual rate of the cyclic peptide rank)” value in data set [1] is “A (The residual rate of the cyclic peptide is 70% or more.)”. Besides, the Kd at human integrin αvβ5 (setting [3]) is less than 50 nM.
With `N=C(N)NCCC[C@@H]1NC(=O)[C@H](Cc2ccc(O)cc2)NC(=O)[C@H](CC(N)=O)NC(=O)[C@H](CC(=O)O)NC(=O)CNC(=O)[C@H](CCCNC(=N)N)NC(=O)[C@@H]2CCCN2C(=O)[C@H](CCC(=O)O)NC(=O)[C@@H](NC(=O)[C@H](CCC(=O)O)NC(=O)[C@H](CCCCN)NC(=O)[C@H](CCCCN)NC(=O)[C@@H](N)CCCCN)CCSCC(=O)NCC[C@@H](C(=O)N[C@@H](CC(=O)O)C(=O)O)NC1=O` [Cyclic peptide 39, KKKE-(Hcy)-EPRGDNYR(Dab(acetyl))D] (H-KKKE[hCys]EPRGDNYR[Dab]D-OH; linker 5-14 via X2), the “Performance evaluation: Stability (residual rate of cyclic peptide after alkali treatment)” value in data set [1] is recorded as “A (The residual rate of the cyclic peptide is 70% or more.)”. In addition, the Kd at human integrin αvβ5 (setting [2]) is less than 50 nM.
For the compound `CC(C)[C@@H]1NC(=O)[C@@H](NC(=O)[C@H](C)NC(=O)[C@H](CCCCN)NC(=O)[C@H](CCCCN)NC(=O)[C@H](CCCCN)NC(=O)[C@@H](N)CCCCN)CCSCC(=O)NCC[C@@H](C(=O)N[C@@H](C)C(=O)O)NC(=O)[C@H](C)NC(=O)[C@H](Cc2ccccc2)NC(=O)[C@H]([C@@H](C)O)NC(=O)[C@H](CC(=O)O)NC(=O)CNC(=O)[C@H](CCCNC(=N)N)NC(=O)[C@@H]2CCCN2C1=O` [Cyclic peptide 110, KKKKA-(Hcy)-VPRGDTFA(Dab(acetyl))A] (H-KKKKA[hCys]VPRGDTFA[Dab]A-OH; linker 6-15 via X2), the “Stability (molecule stability, residual rate of the cyclic peptide rank)” value in data set [1] was “A (The residual rate of the cyclic peptide is 70% or more.)”. For the same compound, the Kd on human integrin αvβ5 (setting [3]) was less than 50 nM.
In the same order, the values of `CC(C)[C@@H]1NC(=O)[C@@H](NC(=O)[C@H](C)N)CCSCC(=O)NCC[C@@H](C(=O)N[C@@H](C)C(=O)O)NC(=O)[C@H](C)NC(=O)[C@H](Cc2ccccc2)NC(=O)[C@H]([C@@H](C)O)NC(=O)[C@H](CC(=O)O)NC(=O)CNC(=O)[C@H](CCCNC(=N)N)NC(=O)[C@@H]2CCCN2C1=O` [Cyclic peptide 125, A-(Hcy)-VPRGDTFA(Dab(acetyl))A] (H-A[hCys]VPRGDTFA[Dab]A-OH; linker 2-11 via X2) are “A (The residual rate of the cyclic peptide is 70% or more.)” and less than 50 nM.
Turning to `C[C@H](NC(=O)[C@H](CCCCN)NC(=O)[C@H](CCCCN)NC(=O)[C@@H](N)CCCCN)C(=O)N[C@H]1CNC(=O)CSCC[C@@H](C(=O)O)NC(=O)[C@H](CCCNC(=N)N)NC(=O)[C@H](Cc2ccc(O)cc2)NC(=O)[C@H](CC(N)=O)NC(=O)[C@H](CC(=O)O)NC(=O)CNC(=O)[C@H](CCCNC(=N)N)NC(=O)[C@@H]2CCCN2C(=O)[C@H](CCC(=O)O)NC1=O` [Cyclic peptide 47, KKKA(Dap(acetyl))EPRGDNYR-(Hcy)] (H-KKKA[Dap]EPRGDNYR[hCys]-OH; linker 5-14 via X1), the “Performance evaluation: Stability (residual rate of cyclic peptide after alkali treatment)” value in data set [1] is “B (The residual rate of the cyclic peptide is 50% or more and less than 70%.)”. Moreover, the Kd at human integrin αvβ5 (setting [2]) lay in the range of 50 to 100 nM.
In the case of `CC[C@H](C)[C@@H]1NC(=O)[C@@H](NC(=O)[C@H](C)NC(=O)[C@H](CCCCN)NC(=O)[C@H](CCCCN)NC(=O)[C@@H](N)CCCCN)CCSCC(=O)NCCCC[C@@H](C(=O)N[C@@H](C)C(=O)O)NC(=O)[C@H](C)NC(=O)[C@H](Cc2ccccc2)NC(=O)[C@H](CO)NC(=O)[C@H](CC(=O)O)NC(=O)CNC(=O)[C@H](CCCNC(=N)N)NC(=O)[C@@H]2CCCN2C1=O` [Cyclic peptide 123, KKKA-(Hcy)-IPRGDSFA(Lys(acetyl))A] (H-KKKA[hCys]IPRGDSFAKA-OH; linker 5-14 via X2), in data set [1], the “Stability (molecule stability, residual rate of the cyclic peptide rank)” value is “A (The residual rate of the cyclic peptide is 70% or more.)”. At human integrin αvβ5 (setting [3]), the Kd was less than 50 nM.
